We go through two compounds from patent US12440479B2, “Prevention or treatment of chronic organ injury” (GEORG-AUGUST-UNIVERSITAET GOETTINGEN, STIFTUNG …, priority 2018, dated 2025).

For test [1], the system named is chronically injured hearts. The test can be described thus: Angiotensin II (AT II)-induced cardiac hypertrophy and fibrosis. It counts as in vivo, mice. The settings on record: heart, 10 mg/kg subcutaneously per day starting one day prior. As to the method: Eight to twelve weeks old C57BL/6 mice were anesthetized with isoflurane inhalation (2-3%), analgesia was performed by subcutaneous injection of 0.1 mg/kg body weight Buprenorphine per day. Osmotic minipumps (Alzet, Cupertino, USA) were loaded with AT II to continuously deliver 1.44 μg/kg body weight per day and implanted subcutaneously (123). Mice were sacrificed 14 days after implantation for further analyses. Mice were injected subcutaneously with 10 mg/kg body weight per day GPI-1046 (Santa Cruz Biotechnology, Dallas, USA) in DMSO once daily starting one day prior of surgery, control mice received equivalent volume of vehicle DMSO. […] For morphometric analysis of interstitial fibrosis, fibrotic areas were assessed by using cellSens (Olympus, Tokyo, Japan) software. Ten visual fields were selected randomly for each MTS stained section at 200× magnification and the relative interstitial fibrotic area was evaluated by using a 10 mm2 graticule. Tubular damage was analysed after PAS stain and graded according to a semi-quantitative score of 0 to 3 (0: normal, 1: mild, 2: moderate, 3: severe) at 400× magnification in a total number of 100 tubules per section (158). […] Cardiomyocyte diameters were determined from 100 random fibers in PAS-stained heart sections using cellSens (Olympus, Tokyo, Japan) software.

The subject of the next test is ARNT/HIF1α, ARNT/AHR. The test can be described thus: Co-immunoprecipitation using antibodies to ARNT in cultured TECs. The settings on record: cultured TECs in response to FK506 (200 pM), IP: Arnt. It counts as cell-based, mouse.
Test [2] has as its system human proximal tubular epithelial cells (HK2 cells). Put plainly: Human TEC cultures (HK2 cells): ARNT/ALK3 and pSmad1/5/8. It is filed as cell-based. The following applies: picomolar FK506. Here is the method:
HK-2 (ATTC, Manassas, USA) are immortalized proximal tubule epithelial cells derived from normal adult human kidney. The murine proximal tubular epithelial cell line MCT was generated from the renal cortex of SJL mice (75). All cells were routinely tested negative for the presence of mycoplasma contamination. None of the cell lines used in this manuscript is listed in the ICLAC and NCBI Biosample database of misidentified cell lines. Cells were cultured in Dulbecco's modified Eagle's (DMEM, Gibco, Carlsbad, USA) medium supplemented with 100 µg/mL penicillin, 100 µg/mL streptomycin and 10% heat-inactivated fetal bovine serum (FBS, Sigma, St. Louis, USA) at 37° C. in 5% CO2. For RNA extractions, cells were seeded in 6 well culture plates at 10^5 cells per well in antibiotic free standard growth medium. […] Cells were harvested for further analysis 6 hours after incubation. To examine de novo protein syntheses, cells were again plated in 6 well culture plates as initially described and then pre-treated with the translation blocker Cycloheximide (CHX, 10 μg/mL, Sigma, St. Louis, USA). After one hour of incubation, 200 pM FK506 was applied for additional 6 hours. […] The relative expression levels were calculated using the equation 2^−ddCt.

Protocol for ARNT/HIF1α, ARNT/AHR: CoIP was performed with Protein G Immunoprecipitation Kit (Roche, Basel, Switzerland). Protein A/G PLUS Agarose beads (Santa Cruz Biotechnology, Santa Cruz, USA) were used for the lysate pre-cleaning and pull-down. For each CoIP, 2×10^7 MCT cells have been used following the manufacturer's instructions. Yy1 (ab12132, Abcam Biochemicals, Cambridge, UK), Fkbp12 (ab2918, Abcam Biochemicals, Cambridge, UK), Arnt (3718, Cell Signaling, Danvers, USA), GFP (MA5-15256, Thermo Fisher Scientific, Waltham, USA) and myc-tag antibodies (2276, Cell Signaling, Danvers, USA) were used for immunoprecipitation, detection of co-immunoprecipitated Fkbp12 (ab12132, Abcam Biochemicals, Cambridge, UK), Hif1α ([MUT], Sigma, St. Louis, USA), Ahr (MA1-514, Thermo Fisher Scientific, Waltham, USA), GFP (MA5-15256, Thermo Fisher Scientific, Waltham, USA) and myc-tag (2276, Cell Signaling, Danvers, USA) was performed by immunoblotting.

Regarding `CCC(C)(C)C(=O)C(=O)N1CCC[C@H]1C(=O)OCCCc1cccnc1` [GPI-1046, 3-(3-pyridyl)-1-propyl-(2S)-1-(3,3-dimethyl-1,2-dioxopentyl)-2-pyrrolidinedine carboxylate], in test [1], the “ALK3-dependent canonical BMP signaling responses” value was “equally effective” and the protection from fibrogenesis entry is listed as “equally effective”.
Consider `C=CC[C@@H]1/C=C(\C)C[C@H](C)C[C@H](OC)[C@H]2O[C@@](O)(C(=O)C(=O)N3CCCC[C@H]3C(=O)O[C@H](/C(C)=C/[C@@H]3CC[C@@H](O)[C@H](OC)C3)[C@H](C)[C@@H](O)CC1=O)[C@H](C)C[C@@H]2OC` [FK506, tacrolimus], for which the “ARNT/HIF1α or ARNT/AHR interaction” value in the test on ARNT/HIF1α, ARNT/AHR is listed as “did not provide evidence”. Also, in test [2], the “ARNT and ALK3 transcription” value was “equally induced”; the “nuclear pSmad1/5/8” value is on record as “nuclear accumulation of pSmad1/5/8”.
